Measurements from patent publication US11564990B2, “Multi-drug-loading-site, high drug-loading capacity ligand-drug conjugate” (JenKem Technology Co., Ltd. (Beijing), priority 2017, dated 2023).

Legend:
[1] = Determination of drug antibody coupling ratio (DAR) by UV/Vis method; type: physicochemical; conditions: two-step coupling products, UV-Vis; moles of drug divided by moles of antibody
Source text: In formula (1), the sum of the absorbances of the drug and the antibody at 280 nm constitutes the total absorbance (A280): A280=(εdrug^280Cdrug+εmAb^280CmAb)l (1)
wherein εdrug^280 is the extinction coefficient of the drug at 280 nm; Cdrug is the drug concentration (mg/mL); […] the extinction coefficient of the antibody at 280 nm; CmAb is the concentration of the antibody.
Equation (2) is the parallel equation for the total absorbance of the drug at the maximum absorption λ(D): Aλ(D)=(εdrug^λ(D)Cdrug+εmAb^λ(D)CmAb)l (2)
wherein εdrug^λ(D) is the extinction coefficient of the drug at λ(D)nm; Cdrug is the drug concentration (mg/mL); εmAb^λ(D) is the extinction coefficient of the antibody at λ(D)nm; CmAb is the concentration of the antibody (mg/mL).
The concentration of antibody and drug can be calculated separately by two equations (1) and (2). CmAb=(A280εdrug^λ(D)−Aλ(D)εdrug^280)/[(εmAb^280εdrug^λ(D)−εmAb^λ(D)εdrug^280)l] (3) Cdrug=(A280εmAb^λ(D)−Aλ(D)εmAb^280)/[(εdrug^280εmAb^λ(D)−εdrug^λ(D)εmAb^280)l] (4)
The average drug antibody coupling ratio (DAR) calculated by dividing
[formula] is expressed as the number of moles of drug divided by the number of moles of antibody: […]

[2] = system: colorectal cancer model (HCT-116); assay: Efficacy test in colorectal cancer model in which HER2 was not expressed; type: in vivo, nude mice; conditions: HCT-116 model
Procedure: Experimental method: Evaluation of the efficacy of the sample was performed using a colorectal cancer model in which HER2 was not expressed. The cell line at logarithmic growth phase was inoculated subcutaneously into the right side of the immunodeficient mice, and the cell inoculation amount was 5×10^6 cells/mouse. After the transplanted tumor was formed, allow it grow in the mice for 2 passage before use. The tumor tissue with strong growth period was cut into tumor pieces with a diameter of about 2 mm, and inoculated subcutaneously into the right torso of nude mice under sterile conditions. The formed tumor tissue is measured by a vernier caliper, and the long and short diameters are represented by a and b, respectively, and the tumor volume (TV) is calculated as: TV=½×a×b^2. Animals were randomized after tumor growth to 100-150 mm^3. Both models were divided into vehicle group, control group (recombinant anti-HER2 humanized monoclonal antibody Ab, 30 mg/kg) and test group I (administered with APEGA-8, 9, 10, respectively (prepared in Example 6-8), the dose was 30 mg/kg in terms of Ab, and the test group II (PEG-Irinotecan (prepared in Example 5), the dose was 30 mg/kg). Both the test article and the control drug were administered once a week vial the tail vein for a total of three administrations. The diameter of the transplanted tumor was measured twice a week during the entire experiment, and the body weight of the mice was weighed. After the end of the administration, continue to observe the animals for a week, and then they were sacrificed.

[3] = Antibody pharmacokinetic assay in rats (total antibody in plasma by HER2 ELISA); conditions: SD rats, intravenous 30 mg/kg, compared with control Ab

Question: For `CCc1c2c(nc3ccc(OC(=O)N4CCC(N5CCCCC5)CC4)cc13)-c1cc3c(c(=O)n1C2)COC(=O)[C@]3(C)CC` [APEGA-8], which “DAR (average drug antibody coupling ratio)” value [1] is on record?
Answer: Its value is 22.2.

Question: And the “antitumor activities in relation to drug loading” value ([2]; 30 mg/kg in terms of Ab, QW×3)?
Answer: Its value is “increased with the drug loading”.

Question: What about the “efficacy compared with group II (PEG-Irinotecan 30 mg/kg)” value ([2]; irinotecan dose 2.6, 4.2, 11.2 mg/kg respectively) of the same compound?
Answer: The value was “still better than group II”.

Question: And the “Tumor inhibition rate (%)” value ([2]; third week of administration, 30 mg/kg QW×3 via tail vein)?
Answer: The value was 40.1%.

Question: What about the “elimination rate in rat plasma (total antibody)” value [3] of the same compound?
Answer: The value was “increased to a certain extent compared with the control Ab, but the decline trend was not significant”.
